Measurements: BindingDB's records for doi:10.1074/jbc.M112.443390 (The Ohio State University, 2013)

Columns and labels:
[1] = target: T1, Gag-Pol polyprotein [A1275T] (Human immunodeficiency virus type 1 group M subtype B (isolate NY5), UniProt P12497, A1275T); test: Strand Trasnfer Assay
Excerpt: (§1) A recently reported time-resolved fluorescence assay [J. Biol. Chem. 287: 21189-21203] was used to quantify IN 3'-processing and strand transfer activities.

Gag-Pol polyprotein [2] = target: T2, Gag-Pol polyprotein (Human immunodeficiency virus type 1 group M subtype B (isolate NY5), UniProt P12497); test: Strand Trasnfer Assay
Excerpt: as §1

[3] = target: T1, Gag-Pol polyprotein [A1275T]; test: 3'-Processing Assay
Excerpt: as §1

Gag-Pol polyprotein [4] = target: T2, Gag-Pol polyprotein; test: 3'-Processing Assay
Excerpt: as §1

CO[C@H](C(=O)O)c1c(C)nc2ccc(Br)cc2c1-c1ccc(Cl)cc1 gave an IC50 [1] of 4610 nM, an IC50 (Gag-Pol polyprotein [2]) of 400 nM and an IC50 [3] of 261000 nM. It also gave an IC50 (Gag-Pol polyprotein [4]) of 910 nM.

With Cc1nc2ccc(Br)cc2c(-c2ccc(Cl)cc2)c1C(OC(C)(C)C)C(=O)O (stereo not drawn) [ALLINI-2] the IC50 [1] was 890 nM, the IC50 (Gag-Pol polyprotein [2]) was 170 nM and the IC50 [3] was 200000 nM. For the same compound, the IC50 (Gag-Pol polyprotein [4]) was 180 nM.
